Experimental data as given in patent US10221427B2 (priority 2014, dated 2019).

What was measured:
ENST1 (TaENST1-4A) = tested on: ENST1 (TaENST1-4A); parameters: species or system wheat cv. CM82036; details: in vivo
Arabidopsis root hair = test: Root hair assay (apoptosis-like programmed cell death); assay type: cell-based, Arabidopsis thaliana; details: 65 μM SA, one day post treatment
Method: The root hair assay was conducted as previously described (Kacprzyk et al. 2014). Briefly, five days old seedling were treated with 65 μM SA solution and incubated at 22° C. in constant light until scoring. The Apostosis-Like Program Cell Death (AL-PCD) was assessed by scoring root hair viability with a fluorescein diacetate (FDA) staining and examination under the microscope of the emission of the fluorescein when excited at the wavelength 485 nm. Root hairs negative for FDA staining were examined further and scored as programmed cell death (PCD) when having a condensed cell content and protoplast retracted away from the cell wall (as opposed to necrotic cells which have no retracted cytoplasm and therefore no distinguishable morphology compared to living cells under the light microscope). The percentage for each category was calculated as a percentage of the total number of root hair scored (about 100) averaged over at least three replicates.

SMILES | ENST1 expression in tissues treated with the toxin (ENST1 (TaENST1-4A)) | ENST1 induction by DON (ENST1 (TaENST1-4A)) [fold] | programmed cell death (PCD) in root hairs after SA treatment (Arabidopsis root hair)
CC1=C[C@H]2O[C@@H]3[C@H](O)C[C@](C)([C@@]2(CO)[C@H](O)C1=O)[C@]31CO1 [DON, deoxynivalenol] | high expression | 43 | 
O=C(O)c1ccccc1O [SA, salicylic acid] |  |  | significant inductions of PCD
